Experimental data reported in patent US8772269B2, “Use of sulfonamide-including compounds in combination with angiogenesis inhibitors” (Eisai R&D Management Co., Ltd., priority 2004, dated 2014).

Legend:
[1] = tested on: human colon cancer cell line Colo320DM; assay: Subcutaneous transplantation model of Colo320DM, E7070 and bevacizumab; format: in vivo, nude mice; conditions: E7070 40 mg/kg/day i.v. Day 1-5, bevacizumab 25 mg/kg/day i.v. Days 1, 5, 8, 12; for Relative tumor volume (RTV) Mean ± SD: at Day 23; for Tx4 Mean ± SD: time for tumor to grow 4-fold of initial volume
Protocol: Human colon cancer cell line Colo320DM (purchased from ATCC) was cultured in RPMI1640 (containing 10% FBS) to about 80% confluency in a 5% carbon dioxide incubator, and the cells were collected by trypsin-EDTA. The cells were diluted with Hanks balanced solution to prepare a 5×10^7 cells/ml suspension, and the resulting cell suspension was subcutaneously transplanted in 0.1 mL volumes to nude mice at the side of their body.
After the transplantation, from the time point when the mean tumor volume reached 259 mm^3, E7070 (40 mg/kg/day) and bevacizumab (25 mg/kg/day) were administered alone or in combination.
E7070 alone was administered once a day for 5 days (Day 1 to Day 5) by the intravenous route. Bevacizumab alone was administered twice a week for 2 weeks (Days 1, 5, 8 and 12) by the intravenous route.
The co-treated group was administered with E7070 at Day 1 to Day 5 by the intravenous route and with bevacizumab at Days 1, 5, 8 and 12 by the intravenous route.
After starting the administration, tumor long and short axes were measured at a frequency of twice a week with a digimatic caliper (Mitsutoyo) and used to calculate the tumor volume according to the following equation. Tumor volume TV=tumor long axis(mm)×tumor short axis^2(mm^2)/2
For determination of the anti-tumor effect, the values of the following two parameters were used.
Tx4: Time (days) required for a tumor to grow 4-fold of the initial tumor volume
RTV: Relative tumor volume (RTV) at Day 23* • * RTV=tumor volume at Day 23/initial tumor volume at Day 1
Likewise, if the co-treated group produces a higher anti-tumor effect than the groups treated with either drug alone and has a significance level of 0.05<P<0.10, E7070 and bevacizumab are determined to have a synergistic tendency.

HCT116-C9 = assay: Cell growth inhibition assay (MTT method), cross resistance study; format: cell-based, human; conditions: Example 5, HCT116-C9, 72 hours, read-out: antiproliferative activity IC50
Description: E7070-resistant sub-clonal cell lines were used to evaluate the antiproliferative activity of E7820, LY186641, LY295501, LY-ASAP and CQS. HCT116-C9 was a sub-clone separated from the human colon cancer cell line HCT116 (American Type Culture Collection, Manassas, Va., U.S.A.), while HCT116-C9-C1 and HCT116-C9-C4 were E7070-resistant sub-clonal cell lines obtained by culturing this HCT116-C9 in the presence of gradually increasing concentrations of E7070 (Molecular Cancer Therapeutics, 2002, 1, 275-286).
These 3 cell lines HCT116-C9, HCT116-C9-C1 and HCT116-C9-C4 were each seeded at 3000 cells/well in 96-well microplates (flat-bottomed) (50 μl/well). After 24 hours, a 3-fold dilution series of each compound was added (50 μl/well). After 72 hours, the cell growth inhibitory activity was evaluated by the MTT method (Mossmann T., J. Immunol. Methods, 1983, 65, 55-63). The least squares method was used to determine the 50% growth inhibitory concentration of each compound against each cancer cell line.
Exactly the same procedure as used in Example 4 was repeated to evaluate the antiproliferative activity of both LY573636 and E7070 using E7070-resistant sub-clonal cell lines.

[2] = tested on: human renal cancer cell line 786-O; assay: Subcutaneous transplantation model of 786-O, E7820 and Compound A; format: in vivo, nude mice; conditions: E7820 100 mg/kg twice a day, Compound A 100 mg/kg once a day, oral, 2 weeks; alone or combined
Protocol: Human renal cancer cell line 786-O (purchased from ATCC) was cultured in RPMI1640 (containing 10% FBS) to about 80% confluency in a 5% carbon dioxide incubator, and the cells were collected by trypsin-EDTA. The cells were diluted with 50% Matrigel-containing phosphate buffer to prepare a 1×10^8 cells/mL suspension, and the resulting cell suspension was subcutaneously transplanted in 0.1 mL volumes to nude mice at the side of their body. Starting from 7 days after the transplantation, E7820 (100 mg/kg, given twice a day for 2 weeks) and 4-(3-chloro-4-(cyclopropylaminocarbonyl)aminophenoxy)-7-methoxy-6-quinolinecarboxamide (100 mg/kg, given once a day for 2 weeks) were administered alone or in combination by the oral route. Tumor long and short axes were measured with a digimatic caliper (Mitsutoyo) and used to calculate both tumor volume and relative tumor volume according to the following equations. Tumor volume TV=tumor long axis(mm)×tumor short axis^2(mm^2)/2 Relative tumor volume RTV=tumor volume at the day of measurement/tumor volume at the first day of administration

[3] = tested on: human colon cancer cell line Colo320DM; assay: Subcutaneous transplantation model of Colo320DM, E7820 and bevacizumab; format: in vivo, nude mice; conditions: E7820 200 mg/kg twice a day oral 3 weeks; bevacizumab 25 mg/kg twice a week intravenous 3 weeks; alone or combined
Protocol: Human colon cancer cell line Colo320DM (purchased from Dainippon Pharmaceutical Co., Ltd., Japan) was cultured at 37° C. in RPMI1640 (containing 10% FBS) to about 80% confluency in a 5% carbon dioxide incubator, and the cells were collected by trypsin-EDTA. The cells were diluted with 50% Matrigel-containing phosphate buffer to prepare a 5×10^7 cells/mL suspension, and the resulting cell suspension was subcutaneously transplanted in 0.1 mL volumes to nude mice at the side of their body. Starting from 7 days after the transplantation, E7820 (200 mg/kg, given twice a day for 3 weeks by the oral route) and bevacizumab (25 mg/kg, given twice a week for 3 weeks by the intravenous route) were administered. Tumor long and short axes were measured with a digimatic caliper (Mitsutoyo) and used to calculate both tumor volume and relative tumor volume according to the following equations. Tumor volume TV=tumor long axis(mm)×tumor short axis^2(mm^2)/2 Relative tumor volume RTV=tumor volume at the day of measurement/tumor volume at the first day of administration

[4] = tested on: Human umbilical vein endothelial cells; assay: VEGF-induced cell proliferation in vascular endothelial cell proliferation assay (in vitro); format: cell-based; conditions: 3 days, absorbance relative to untreated cells
Protocol: Human umbilical vein endothelial cells were suspended in 2% FBS-containing Human endothelial-SFM Basal Growth Medium (Invitrogen Corporation) and adjusted to 1×10^4 cells/ml. The resulting cell suspension was dispensed in 100 μl aliquots into each well of 96-well plates and cultured at 37° C. in a 5% carbon dioxide incubator. On the next day, a solution containing E7820, a solution containing bevacizumab (Avastin®, purchased from Genentech), and a solution containing both E7820 and bevacizumab were respectively diluted with Human endothelial-SFM Basal Growth Medium containing 20 ng/ml VEGF (Genzyme Techne Corp.) and 2% FBS. The resulting diluted solutions were then added to the individual wells of the plates in a volume of 100 μl/well, followed by further culturing.
The combined effect was calculated according to the equation of Chou et al. (Adv. Enzyme Regul., 22, 27-55, 1984).

[5] = compound concentration 0.0006 μg/μl
[6] = compound concentration 0.0012 μg/μl
[7] = compound concentration 0.0024 μg/μl
[8] = compound concentration 0.0049 μg/μl
[9] = compound concentration 0.0098 μg/μl
[10] = compound concentration 0.0195 μg/μl
[11] = compound concentration 0.0391 μg/μl
[12] = compound concentration 0.0781 μg/μl
[13] = compound concentration 0.1563 μg/μl
[14] = compound concentration 0.3125 μg/μl
[15] = compound concentration 0.6250 μg/μl
[16] = compound concentration 1.2500 μg/μl
[17] = compound concentration 2.5000 μg/μl
[18] = compound concentration 5.0000 μg/μl
[19] = compound concentration 10.0000 μg/μl
[20] = compound concentration 20.0000 μg/μl
[21] = compound concentration 40.0000 μg/μl

Compound	Relative tumor volume (RTV) Mean ± SD [1]	Tx4 Mean ± SD [1] [days]	Relative tumor volume at Day 22 Mean ± SD [2]	% of control [4, 5]	% of control [4, 6]	% of control [4, 7]	% of control [4, 8]	% of control [4, 9]	% of control [4, 10]	% of control [4, 11]	% of control [4, 12]	% of control [4, 13]	% of control [4, 14]	% of control [4, 15]	% of control [4, 16]	% of control [4, 17]	% of control [4, 18]	% of control [4, 19]	% of control [4, 20]	% of control [4, 21]	further results
NS(=O)(=O)c1ccc(S(=O)(=O)Nc2cccc3c(Cl)c[nH]c23)cc1 [E7070, N-(3-chloro-1H-indol-7-yl)-4-sulfamoylbenzenesulfonamide]	2.70 ± 0.97	27.0 ± 3.4	–	–	–	–	–	–	–	–	–	–	–	–	–	–	–	–	–	–	IC50 (HCT116-C9): 127 nM
COc1cc2nccc(Oc3ccc(NC(=O)NC4CC4)c(Cl)c3)c2cc1C(N)=O [Compound A, 4-(3-chloro-4-(cyclopropylaminocarbonyl)aminophenoxy)-7-methoxy-6-quinolinecarboxamide]	–	–	0.59 ± 0.12	–	–	–	–	–	–	–	–	–	–	–	–	–	–	–	–	–	–
Bevacizumab: human anti-VEGF (vascular endothelial growth factor) monoclonal antibody, purchased from Genentech under the name Avastin [reference compound]	2.84 ± 0.68	26.3 ± 2.8	–	96.0 % of control	94.2 % of control	89.5 % of control	88.3 % of control	80.8 % of control	78.8 % of control	71.0 % of control	68.5 % of control	64.2 % of control	62.0 % of control	60.1 % of control	56.1 % of control	51.8 % of control	54.8 % of control	53.2 % of control	50.4 % of control	51.7 % of control	Relative tumor volume at Day 22 Mean ± SD [3]: 5.1 ± 0.8
Cc1ccc(NS(=O)(=O)c2cccc(C#N)c2)c2[nH]cc(C#N)c12 [E7820, N-(3-cyano-4-methyl-1H-indol-7-yl)-3-cyanobenzenesulfonamide]	–	–	0.80 ± 0.13	98.9 % of control	102.2 % of control	104.8 % of control	99.4 % of control	97.2 % of control	88.9 % of control	87.9 % of control	72.3 % of control	60.5 % of control	56.2 % of control	57.2 % of control	47.8 % of control	41.4 % of control	37.4 % of control	34.4 % of control	33.1 % of control	12.5 % of control	–
